This is an account of results in ChEMBL document CHEMBL1154363, “Heterocyclic 1,7-disubstituted indole sulfonamides are potent and selective human EP3 receptor antagonists” (Bioorg Med Chem Lett, 2009).

pIC50: −log10 of the molar value.

For series [1], the target named is T1, Prostaglandin E2 receptor EP3 subtype (Homo sapiens, UniProt P43115).
T1 sequence (P43115 whole entry): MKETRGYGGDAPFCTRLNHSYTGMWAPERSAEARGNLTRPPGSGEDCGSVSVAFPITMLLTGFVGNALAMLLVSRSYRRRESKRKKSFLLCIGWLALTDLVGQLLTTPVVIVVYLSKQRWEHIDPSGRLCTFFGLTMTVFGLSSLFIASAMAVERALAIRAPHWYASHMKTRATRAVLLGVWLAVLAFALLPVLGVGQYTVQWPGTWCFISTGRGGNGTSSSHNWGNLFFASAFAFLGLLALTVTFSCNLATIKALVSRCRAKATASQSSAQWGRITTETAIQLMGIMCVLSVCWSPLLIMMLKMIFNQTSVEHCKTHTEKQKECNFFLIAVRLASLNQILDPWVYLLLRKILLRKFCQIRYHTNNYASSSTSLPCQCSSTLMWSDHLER
Kind of series: Displacement of [3H]PGE2 from human EP3 receptor. Background: Loss of bound radioactivity is the signal in a displacement assay; it reports binding, not function.

Series [2] deals with T2, Prostaglandin E2 receptor EP3 subtype (Homo sapiens) (UniProt P43115).
T2 sequence (whole entry): T1 sequence (P43115 whole entry)
Kind of series: Displacement of [3H]PGE2 from human EP3 receptor in presence of 10% human serum.

In series [3] the target is T3, Thromboxane A2 receptor (Homo sapiens) (UniProt P21731).
T3 sequence (whole entry): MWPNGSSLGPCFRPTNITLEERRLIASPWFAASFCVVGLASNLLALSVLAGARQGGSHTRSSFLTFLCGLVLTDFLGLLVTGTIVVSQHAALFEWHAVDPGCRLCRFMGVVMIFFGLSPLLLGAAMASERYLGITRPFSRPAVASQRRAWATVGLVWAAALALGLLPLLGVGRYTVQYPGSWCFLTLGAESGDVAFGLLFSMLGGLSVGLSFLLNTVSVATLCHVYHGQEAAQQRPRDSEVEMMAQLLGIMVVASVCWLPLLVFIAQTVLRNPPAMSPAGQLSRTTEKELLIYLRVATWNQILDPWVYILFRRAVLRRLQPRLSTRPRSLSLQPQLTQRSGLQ
Kind of series: Activity at TP receptor at 1 uM by FLIPR assay.

In series [4] the target is T4, Prostaglandin E2 receptor EP1 subtype (Homo sapiens) (UniProt P34995).
T4 sequence (whole entry): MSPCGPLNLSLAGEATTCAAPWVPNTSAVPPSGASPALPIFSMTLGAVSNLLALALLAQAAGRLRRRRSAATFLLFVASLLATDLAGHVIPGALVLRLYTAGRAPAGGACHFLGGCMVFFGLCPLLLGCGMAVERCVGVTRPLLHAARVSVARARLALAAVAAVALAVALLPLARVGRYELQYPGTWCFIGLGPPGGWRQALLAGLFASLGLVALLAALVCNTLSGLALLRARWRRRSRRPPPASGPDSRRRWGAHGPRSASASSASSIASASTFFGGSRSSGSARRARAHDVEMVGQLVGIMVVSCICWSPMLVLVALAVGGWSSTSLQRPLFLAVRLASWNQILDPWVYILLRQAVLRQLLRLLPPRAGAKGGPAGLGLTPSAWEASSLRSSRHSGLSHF
Kind of series: Activity at EP1 receptor at 0.1 uM by FLIPR assay.

Series [5] has as its target T5, Prostaglandin E2 receptor EP4 subtype (Homo sapiens, UniProt P35408). Kind of series: Activity at EP4 receptor at 1 uM by FLIPR assay.
For series [6], the target named is T5, Prostaglandin E2 receptor EP4 subtype. Kind of series: Activity at EP4 receptor at 0.1 uM by FLIPR assay.
The target in series [7] is T6, Prostaglandin F2-alpha receptor (Homo sapiens, UniProt P43088). Kind of series: Activity at FP receptor at 1 uM by FLIPR assay.
T6 sequence (P43088 whole entry): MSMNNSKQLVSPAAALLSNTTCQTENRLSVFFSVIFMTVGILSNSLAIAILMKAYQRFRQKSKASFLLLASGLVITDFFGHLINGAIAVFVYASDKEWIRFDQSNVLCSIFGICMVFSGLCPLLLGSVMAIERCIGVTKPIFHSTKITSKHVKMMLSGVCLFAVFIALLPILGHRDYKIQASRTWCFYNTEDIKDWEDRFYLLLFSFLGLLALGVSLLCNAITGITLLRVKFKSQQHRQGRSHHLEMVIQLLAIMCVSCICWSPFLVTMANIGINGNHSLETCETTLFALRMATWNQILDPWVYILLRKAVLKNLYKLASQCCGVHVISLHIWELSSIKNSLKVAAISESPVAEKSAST
Series [8] concerns the target T4, Prostaglandin E2 receptor EP1 subtype (Homo sapiens). Kind of series: Activity at EP1 receptor at 10 uM by FLIPR assay.
The target is the same in series [9]. Description: Activity at EP1 receptor at 1 uM by FLIPR assay.
For series [10], the target named is T6, Prostaglandin F2-alpha receptor. Kind of series: Activity at FP receptor at 10 uM by FLIPR assay.
In series [11] the target is T3, Thromboxane A2 receptor (Homo sapiens). Kind of series: Activity at TP receptor at 0.1 uM by FLIPR assay.
The target in series [12] is T6, Prostaglandin F2-alpha receptor. Kind of series: Activity at FP receptor at 0.1 uM by FLIPR assay.
The target in series [13] is T5, Prostaglandin E2 receptor EP4 subtype. Kind of series: Activity at EP4 receptor at 10 uM by FLIPR assay.
The target of series [14] is T3, Thromboxane A2 receptor (Homo sapiens). Kind of series: Activity at TP receptor at 10 uM by FLIPR assay.
A short description of series [15]: Metabolic stability in rat liver microsomes assessed as compound remaining after 30 mins. In kind it is ADME, Microsome. The conditions noted are these: read-out: Stability.
A further series deals with Platelet. Kind of series: Inhibition of PGE2/collagen-induced platelet aggregation rat platelets rich plasma. In kind it is functional.

T5 sequence (P35408 whole entry): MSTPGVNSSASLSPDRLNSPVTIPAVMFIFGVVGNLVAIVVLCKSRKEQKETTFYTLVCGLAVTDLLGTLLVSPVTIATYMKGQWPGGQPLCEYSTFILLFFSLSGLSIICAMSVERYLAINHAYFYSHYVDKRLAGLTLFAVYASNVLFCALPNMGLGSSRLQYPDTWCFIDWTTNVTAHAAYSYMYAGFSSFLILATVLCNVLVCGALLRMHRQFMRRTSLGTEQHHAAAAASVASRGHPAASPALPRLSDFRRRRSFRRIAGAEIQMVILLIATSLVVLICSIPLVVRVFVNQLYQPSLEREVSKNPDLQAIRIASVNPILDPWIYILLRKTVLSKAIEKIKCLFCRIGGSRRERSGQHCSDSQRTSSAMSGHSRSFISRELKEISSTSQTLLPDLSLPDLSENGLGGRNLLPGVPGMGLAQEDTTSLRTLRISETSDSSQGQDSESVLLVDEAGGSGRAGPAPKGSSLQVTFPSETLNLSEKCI

Broadly, the pIC50 is −log10 of the IC50, conventionally taken in molar units. Lower therefore signals a high IC50. For the compound `Cc1cn(Cc2ccc(Cl)cc2Cl)c2c(-c3nnc(NC(=O)c4ccc(F)cc4F)o3)cc(F)cc12`, the negative logarithm of the IC50 (pIC50) in [1] is 5.99.

On to `Cc1cn(Cc2ccc(Cl)cc2Cl)c2c(-c3nnc(NS(C)(=O)=O)o3)cc(F)cc12`, for which the fold change (FC) in series [2] worked out at 199. This compound had a pIC50 in series [1] of 5.59.

On to `Cc1cn(Cc2ccc3ccccc3c2)c2c(-c3cc(NS(=O)(=O)c4ccc(Cl)c(Cl)c4)no3)cc(F)cc12`, for which the Activity in [3] is -8%; in [4], 2%; in [5], -15%; in [6] it was -29%; in series [7], -8%; in [8], 16%. The Activity was -7% in series [9]; -6% in [10]; 9% in [11]; -3% in series [12]; 3% in series [13]; -13% in series [14]. Also, in series [2], the fold change (FC) turned out to be 4.9. Moreover, the pIC50 in series [1] is 7.96.

In the case of `Cc1cn(Cc2ccc(Cl)cc2Cl)c2c(-c3nnc(NC(=O)c4ccc5c(c4)OC(F)(F)O5)o3)cc(F)cc12`, the fold change (FC) in [2] was 21.4. The same compound showed a pIC50 in series [1] of 6.61.

On to `Cc1cn(Cc2ccc(F)c(F)c2)c2c(-c3cc(NS(=O)(=O)c4ccc(F)c(F)c4)no3)cc(F)cc12`, for which the Activity in series [3] is 0%; in series [4], -9%; in [5] it was 17%; in series [6], 18%; in [7], 16%; in series [8], 99%. Besides, the Activity in series [9] was 11%; in series [10], 21%; in series [11] it was 3%; in series [12] it was 15%; in series [13] it was 18%; in series [14], 17%. For the same compound, in series [2], the fold change (FC) turned out to be 178. This compound also gave a pIC50 in [1] of 7.36.

The compound `Cc1cn(Cc2ccc(F)cc2F)c2c(-c3cc(NS(C)(=O)=O)on3)cc(F)cc12` gave a pIC50 in series [1] of 4.75.

In the case of `Cc1cn(Cc2ccc(Cl)cc2Cl)c2c(-c3nc(NS(=O)(=O)c4cc(Cl)c(Cl)s4)no3)cc(F)cc12`, the Activity in series [3] is 5%; in [4], 5%; in series [5] it was -21%; in series [6] it was -21%; in series [7], -2%; in series [8], 100%. In addition, the Activity in series [9] is 74%; in series [10], 30%; in series [11] it was 2%; in series [12], -4%; in [13] it was 25%; in series [14] it was 98%. Besides, the fold change (FC) in series [2] was 20.9. In [1], this compound gave a pIC50 of 7.62.

For `Cc1cn(Cc2ccc(Cl)cc2Cl)c2c(-c3cc(NS(=O)(=O)c4ccc(Cl)c(Cl)c4)no3)cc(F)cc12`, the fold change (FC) in [2] came out at 18. Further, in series [1], the pIC50 was 9.00.

Turning to `Cc1cn(Cc2ccc(F)c(F)c2)c2c(-c3cc(NS(=O)(=O)c4cc(Cl)c(Cl)s4)no3)cc(F)cc12`, the Activity in series [3] was -3%; in series [4] it was -8%; in series [5], 11%; in series [6] it was 9%; in series [7], 18%; in [8], 52%. The Activity in series [9] was -5%; in series [10], 31%; in series [11] it was 3%; in series [12] it was 8%; in series [13], 18%; in [14] it was 11%. In addition, the fold change (FC) in [2] is 24.2. The pIC50 in [1] is 7.23.

For `Cc1cn(Cc2ccc(Cl)cc2Cl)c2c(-c3cc(NS(=O)(=O)c4cc(F)c(F)cc4F)no3)cc(F)cc12`, in [2], the fold change (FC) came out at 3.3. Further, the pIC50 in series [1] was 8.52.

On to `Cc1cn(Cc2ccc3ccccc3c2)c2c(-c3cc(NS(=O)(=O)c4cc(F)c(F)cc4F)no3)cc(F)cc12`, for which the Activity in [3] is -5%; in [4] it was -2%; in [5], -17%; in series [6] it was -17%; in [7], 3%; in series [8], 100%. The Activity in [9] was 29%; in series [10], 19%; in [11], -9%; in [12], -3%; in series [13], 9%; in series [14] it was 19%. Further, the fold change (FC) in series [2] came out at 2.3. In addition, in series [1], the negative-log IC50 (pIC50) is 8.10.

For the compound `Cc1cn(Cc2ccc(F)c(F)c2)c2c(-c3cc(NS(=O)(=O)c4cc(Cl)c(Cl)s4)nn3C)cc(F)cc12`, the fold change (FC) in series [2] amounted to 1. In series [1], this compound gave a pIC50 of 5.70.

Take `Cc1cn(Cc2ccc3ccccc3c2)c2c(-c3cc(NS(=O)(=O)c4ccc(F)c(F)c4)no3)cc(F)cc12`: in [15], the remaining at 0.5 h was 9.9%. For the same compound, the Activity was -2% in series [3]; -3% in series [4]; -17% in series [5]; -25% in [6]; 0% in series [7]; 62% in series [8]. The Activity was 9% in series [9]; 6% in series [10]; 3% in [11]; -9% in series [12]; -4% in series [13]; 12% in [14]. The fold change (FC) in series [2] came to 14.6. This compound had a pIC50 in [1] of 9.00.

In [1], `Cc1cn(Cc2ccc(Cl)cc2Cl)c2c(-c3nnc(NC(=O)c4ccco4)o3)cc(F)cc12` showed a pIC50 of 6.44.

On to `Cc1cn(Cc2ccc3ccccc3c2)c2c(-c3cc(NS(=O)(=O)c4cc(Cl)c(Cl)s4)no3)cc(F)cc12`, for which the Activity was -7% in series [3]; -10% in series [4]; -9% in [5]; -9% in series [6]; -4% in series [7]; 80% in series [8]. For the same compound, the Activity was 0% in series [9]; 7% in [10]; -12% in [11]; -7% in [12]; 10% in [13]; 7% in [14]. The fold change (FC) in series [2] was 3.6. Also, the values for the pIC50 (in the series on Platelet; in series [1]) were 5.49 and 9.00, respectively.

For `Cc1cn(Cc2ccc(F)c(F)c2)c2c(-c3cc(NS(=O)(=O)c4ccc(F)c(F)c4F)no3)cc(F)cc12`, the Activity in series [3] is 3%; in series [4], 5%; in series [5], -3%; in series [6], -8%; in series [7], -11%; in [8], 99%. Also, the Activity in series [9] stood at 77%; in [10], 99%; in series [11], 5%; in series [12] it was 3%; in series [13], 38%; in [14], 70%. Further, the fold change (FC) in series [2] is 103. In series [1], the pIC50 was 7.92.

Turning to `Cc1cn(Cc2ccc(Cl)cc2Cl)c2c(-c3nnc(NC(=O)c4ccc(F)c(F)c4)o3)cc(F)cc12`, the Activity in series [3] is -1%; in series [4], -7%; in [5], 14%; in series [6], 9%; in [7] it was 15%; in [8], 96%. Further, the Activity worked out at 10% in series [9]; 66% in [10]; 11% in series [11]; 3% in series [12]; 62% in [13]; 64% in [14]. The fold change (FC) in series [2] stood at 19.6. Also, the pIC50 in series [1] is 6.18.

For the compound `Cc1cn(Cc2ccc(Cl)cc2Cl)c2c(-c3ccc(NS(=O)(=O)c4cc(Cl)c(Cl)s4)nc3)cc(F)cc12`, the fold change (FC) in series [2] was 217. For the same compound, in [1], the pIC50 is 8.70.
